Experimental data: patent US7091202B2, “4-arylspirocycloalkyl-2-aminopyrimidine carboxamide KCNQ potassium channel modulators” (Bristol-Myers Squibb Company, priority 2004, dated 2006)

Biological target: T1, hQ23 (HEK-293 cell line stably transfected with one of the members of the KCNQ family) (Homo sapiens, UniProt O43525+O43526)
T1 construct: expressed in transfected cells; host or cells: HEK-293, stably transfected
Test: Thallium flux assay for KCNQ channel blockers (FLIPR, BTC dye)
Type: cell-based
Details: Table 2; thallium flux, HEK-293
Outline: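 HEK-293 cells stably expressing a KCNQ member, loaded with BTC-AM (2 μM) in chloride-free buffer, pH 7.3; compounds added at 1% DMSO, then Tl2SO4 stimulus on FLIPR (488/540 nm, 60 s). Minimal active concentration set at ≥4 SD above negative control; IC50 from 10-point 1:3 series, single-site logistic fit versus the positive-control blocker.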

T1 sequence (O43526 whole entry): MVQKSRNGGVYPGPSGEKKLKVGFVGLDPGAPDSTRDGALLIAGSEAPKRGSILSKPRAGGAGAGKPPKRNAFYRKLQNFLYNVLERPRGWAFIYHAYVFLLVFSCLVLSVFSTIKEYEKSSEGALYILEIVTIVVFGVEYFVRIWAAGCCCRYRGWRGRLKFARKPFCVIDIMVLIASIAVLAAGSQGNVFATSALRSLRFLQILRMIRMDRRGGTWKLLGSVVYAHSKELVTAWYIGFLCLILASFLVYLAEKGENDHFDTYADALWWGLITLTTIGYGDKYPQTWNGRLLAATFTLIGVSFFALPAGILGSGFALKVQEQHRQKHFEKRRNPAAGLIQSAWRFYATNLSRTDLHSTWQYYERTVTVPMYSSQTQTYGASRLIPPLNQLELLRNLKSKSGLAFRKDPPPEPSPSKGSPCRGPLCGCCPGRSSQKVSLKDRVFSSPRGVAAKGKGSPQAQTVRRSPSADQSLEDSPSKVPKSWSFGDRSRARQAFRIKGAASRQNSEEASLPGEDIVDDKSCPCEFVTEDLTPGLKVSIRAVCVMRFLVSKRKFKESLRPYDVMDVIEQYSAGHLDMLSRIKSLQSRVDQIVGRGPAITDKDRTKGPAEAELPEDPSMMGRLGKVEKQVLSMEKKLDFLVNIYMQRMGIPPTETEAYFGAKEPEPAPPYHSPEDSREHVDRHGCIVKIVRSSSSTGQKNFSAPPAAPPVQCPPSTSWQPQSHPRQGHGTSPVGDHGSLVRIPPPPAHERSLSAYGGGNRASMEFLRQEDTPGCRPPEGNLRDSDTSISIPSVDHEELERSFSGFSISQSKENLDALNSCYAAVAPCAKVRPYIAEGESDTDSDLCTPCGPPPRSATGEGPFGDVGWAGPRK
T1 sequence (O43525 whole entry): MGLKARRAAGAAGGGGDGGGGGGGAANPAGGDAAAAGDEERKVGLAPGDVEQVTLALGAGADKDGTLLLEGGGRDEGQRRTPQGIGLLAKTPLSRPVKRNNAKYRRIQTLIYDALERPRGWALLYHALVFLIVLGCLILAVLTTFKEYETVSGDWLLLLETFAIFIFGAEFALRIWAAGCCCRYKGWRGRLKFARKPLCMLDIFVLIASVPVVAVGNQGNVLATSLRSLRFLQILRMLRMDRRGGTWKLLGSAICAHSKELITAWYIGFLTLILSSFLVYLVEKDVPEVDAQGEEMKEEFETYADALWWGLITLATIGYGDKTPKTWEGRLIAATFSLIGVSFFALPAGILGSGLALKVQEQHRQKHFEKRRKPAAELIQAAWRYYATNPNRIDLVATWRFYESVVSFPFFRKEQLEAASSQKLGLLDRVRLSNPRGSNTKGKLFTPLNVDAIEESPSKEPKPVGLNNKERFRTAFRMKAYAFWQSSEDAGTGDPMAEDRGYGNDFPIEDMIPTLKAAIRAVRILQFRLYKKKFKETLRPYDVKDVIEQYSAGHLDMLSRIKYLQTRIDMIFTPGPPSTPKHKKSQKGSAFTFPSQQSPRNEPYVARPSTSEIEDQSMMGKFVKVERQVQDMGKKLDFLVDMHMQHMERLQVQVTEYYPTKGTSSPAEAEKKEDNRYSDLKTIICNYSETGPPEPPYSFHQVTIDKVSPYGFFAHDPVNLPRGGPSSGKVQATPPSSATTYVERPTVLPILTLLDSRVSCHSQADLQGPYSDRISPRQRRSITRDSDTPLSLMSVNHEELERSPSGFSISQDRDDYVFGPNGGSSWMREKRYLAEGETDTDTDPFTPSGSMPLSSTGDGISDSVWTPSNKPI

First: CN(C)CCNc1ncc(C(=O)N(C)CCc2ccccc2)c(C2(c3ccccc3)CC2)n1 [Example 28, 5-pyrimidinecarboxamide, 2-[[2-(dimethylamino)ethyl]amino]-N-methyl-4-(1-phenylcyclopropyl)-N-(2-phenylethyl)-]
Second: CC1CCCN(c2ncc(C(=O)N3CCc4ccccc4C3)c(C3(c4ccccc4)CC3)n2)C1 (centres unmarked) [Example 25, isoquinoline, 1,2,3,4-tetrahydro-2-[[2-(3-methyl-1-piperidinyl)-4-(1-phenylcyclopropyl)-5-pyrimidinyl]carbonyl]-]
The EC50 of the first is 3.1-fold lower: 301 nM for the first, 945 nM for the second. The first is the more potent here.

Same assay, conditions: Table 3; thallium flux, HEK-293

`CN(C)CCNc1ncc(C(=O)N2CCc3ccccc3C2)c(C2(c3ccc(Cl)cc3)CCC2)n1` [Example 54, isoquinoline, 2-[[4-[1-(4-chlorophenyl)cyclobutyl]-2-[[2-(dimethylamino)ethyl]amino]-5-pyrimidinyl]carbonyl]-1,2,3,4-tetrahydro-] was tested, and the EC50 was 475 nM.

Same assay, conditions: hQ23 cells, thallium flux

First: CC1CCC(Nc2ncc(C(=O)N(C)C3CCCCC3)c(C3(c4ccc(F)cc4)CCCC3)n2)CC1 (centres unmarked) [Example 207, 5-pyrimidinecarboxamide, N-cyclohexyl-4-[1-(4-fluorophenyl)cyclopentyl]-N-methyl-2-[(4-methylcyclohexyl)amino]-]
Second: O=C(NCc1cc(F)cc(C(F)(F)F)c1)c1cnc(NC2CC2)nc1C1(c2ccccc2)CCCC1 [Example 122, 5-pyrimidinecarboxamide, 2-(cyclopropylamino)-N-[[3-fluoro-5-(trifluoromethyl)phenyl]methyl]-4-(1-phenylcyclopentyl)-]
The EC50 of the first is 87-fold higher: 873 nM for the first, 10 nM for the second. The second is the more potent here.

`CC(NC(=O)c1cnc(NC2CCCC2)nc1C1(c2ccccc2)CCCC1)c1ccc(F)cc1` (centres unmarked) [Example 136, 5-pyrimidinecarboxamide, 2-(cyclopentylamino)-N-[1-(4-fluorophenyl)ethyl]-4-(1-phenylcyclopentyl)-] and `O=C(NCc1ccc(F)cc1F)c1cnc(NC2CCCC2)nc1C1(c2ccc(Cl)cc2)CCCC1` [Example 189, 5-pyrimidinecarboxamide, 4-[1-(4-chlorophenyl)cyclopentyl]-2-(cyclopentylamino)-N-[(2,4-difluorophenyl)methyl]-] are within 1.5-fold of each other in EC50: 413 nM for the first, 340 nM for the second.

`O=C(NCc1cccc2ccccc12)c1cnc(NC2CC2)nc1C1(c2ccc(Cl)cc2)CCCC1` [Example 165, 5-pyrimidinecarboxamide, 4-[1-(4-chlorophenyl)cyclopentyl]-2-(cyclopropylamino)-N-(1-naphthalenylmethyl)-] and `CCN(Cc1ccccc1)C(=O)c1cnc(NC2CCC(C)CC2)nc1C1(c2ccccc2)CCCC1` (centres unmarked) [Example 84, 5-pyrimidinecarboxamide, N-ethyl-2-[(4-methylcyclohexyl)amino]-4-(1-phenylcyclopentyl)-N-(phenylmethyl)-] are within 1.5-fold of each other in EC50: 630 nM for the first, 829 nM for the second.

“5-pyrimidinecarboxamide, 4-[1-(4-fluorophenyl)cyclopentyl]-N,N-bis(1-methylethyl)-2-(3-methyl-1-piperidinyl)- [Example 224]” and `CC1CCC(Nc2ncc(C(=O)NCc3ccc(Cl)cc3Cl)c(C3(c4ccc(Cl)cc4)CCCC3)n2)CC1` (centres unmarked) [Example 177, 5-pyrimidinecarboxamide, 4-[1-(4-chlorophenyl)cyclopentyl]-N-[(2,4-dichlorophenyl)methyl]-2-[(4-methylcyclohexyl)amino]-] are within 1.5-fold of each other in EC50: 39 nM for the first, 55 nM for the second.

First: CN(CCc1ccccc1)C(=O)c1cnc(NC2CCCC2)nc1C1(c2ccc(Cl)cc2)CCCC1 [Example 148, 5-pyrimidinecarboxamide, 4-[1-(4-chlorophenyl)cyclopentyl]-2-(cyclopentylamino)-N-methyl-N-(2-phenylethyl)-]
Second: O=C(NCc1ccc2c(c1)OCO2)c1cnc(N2CCCC2)nc1C1(c2ccc(Cl)cc2)CCCC1 [Example 152, 5-pyrimidinecarboxamide, N-(1,3-benzodioxol-5-ylmethyl)-4-[1-(4-chlorophenyl)cyclopentyl]-2-(1-pyrrolidinyl)-]
The EC50 of the first is 5.6-fold higher: 597 nM for the first, 107 nM for the second. The second is the more potent here.

Going from `CC1CCC(Nc2ncc(C(=O)NCc3ccc(Cl)cc3Cl)c(C3(c4ccccc4)CCCC3)n2)CC1` (centres unmarked) [Example 110, 5-pyrimidinecarboxamide, N-[(2,4-dichlorophenyl)methyl]-2-[(4-methylcyclohexyl)amino]-4-(1-phenylcyclopentyl)-] to `CC1CCCN(c2ncc(C(=O)N(C(C)C)C(C)C)c(C3(c4ccccc4)CCCC3)n2)C1` (centres unmarked) [Example 82, 5-pyrimidinecarboxamide,N,N-bis(1-methylethyl)-2-(3-methyl-1-piperidinyl)-4-(1-phenylcyclopentyl)-], the EC50 rises from 68 nM to 285 nM (4.2-fold).

`CCC(C)Nc1ncc(C(=O)NCc2cccc3ccccc23)c(C2(c3ccc(Cl)cc3)CCCC2)n1` (centres unmarked) [Example 171, 5-pyrimidinecarboxamide, 4-[1-(4-chlorophenyl)cyclopentyl]-2-[(1-methylpropyl)amino]-N-(1-naphthalenylmethyl)-] and `CC1CCN(c2ncc(C(=O)N3CCCCC3)c(C3(c4ccccc4)CCCC3)n2)CC1` [Example 77, piperidine, 1-[[2-(4-methyl-1-piperidinyl)-4-(1-phenylcyclopentyl)-5-pyrimidinyl]carbonyl]-] are within 1.5-fold of each other in EC50: 158 nM for the first, 164 nM for the second.

First: CCN(Cc1ccccc1)C(=O)c1cnc(NC2CCCC2)nc1C1(c2ccc(Cl)cc2)CCCC1 [Example 149, 5-pyrimidinecarboxamide, 4-[1-(4-chlorophenyl)cyclopentyl]-2-(cyclopentylamino)-N-ethyl-N-(phenylmethyl)-]
Second: CC(NC(=O)c1cnc(N2CCCC2)nc1C1(c2ccccc2)CCCC1)c1ccc(F)cc1 (centres unmarked) [Example 132, 5-pyrimidinecarboxamide, N-[1-(4-fluorophenyl)ethyl]-4-(1-phenylcyclopentyl)-2-(1-pyrrolidinyl)-]
The EC50 of the first is 2.7-fold higher: 525 nM for the first, 195 nM for the second. The second is the more potent here.

First: CC1CCN(c2ncc(C(=O)NC(C)c3ccc(F)cc3)c(C3(c4ccccc4)CCCC3)n2)CC1 (centres unmarked) [Example 134, 5-pyrimidinecarboxamide, N-[1-(4-fluorophenyl)ethyl]-2-(4-methyl-1-piperidinyl)-4-(1-phenylcyclopentyl)-]
Second: CC1CCCN(c2ncc(C(=O)NCc3ccc4c(c3)OCO4)c(C3(c4ccccc4)CCCC3)n2)C1 (centres unmarked) [Example 92, 5-pyrimidinecarboxamide, N-(1,3-benzodioxol-5-ylmethyl)-2-(3-methyl-1-piperidinyl)-4-(1-phenylcyclopentyl)-]
The EC50 of the first is 1.7-fold higher: 98 nM for the first, 57 nM for the second.

`CC1CCC(Nc2ncc(C(=O)NCc3ccc4c(c3)OCO4)c(C3(c4ccc(Cl)cc4)CCCC3)n2)CC1` (centres unmarked) [Example 151, 5-pyrimidinecarboxamide, N-(1,3-benzodioxol-5-ylmethyl)-4-[1-(4-chlorophenyl)cyclopentyl]-2-[(4-methylcyclohexyl)amino]-] and `CC1CCCN(c2ncc(C(=O)N(C)Cc3ccccc3)c(C3(c4ccc(F)cc4)CCCC3)n2)C1` (centres unmarked) [Example 205, 5-pyrimidinecarboxamide, 4-[1-(4-fluorophenyl)cyclopentyl]-N-methyl-2-(3-methyl-1-piperidinyl)-N-(phenylmethyl)-] are within 1.5-fold of each other in EC50: 119 nM for the first, 116 nM for the second.

Going from `CN1CCC(N(C)c2ncc(C(=O)NCc3cc(F)cc(C(F)(F)F)c3)c(C3(c4ccc(Cl)cc4)CCCC3)n2)CC1` [Example 194, 5-pyrimidinecarboxamide, 4-[1-(4-chlorophenyl)cyclopentyl]-N-[[3-fluoro-5-(trifluoromethyl)phenyl]methyl]-2-[methyl(1-methyl-4-piperidinyl)amino]-] to `CC1CCCN(c2ncc(C(=O)N3CCc4ccccc4C3)c(C3(c4ccc(F)cc4)CCCC3)n2)C1` (centres unmarked) [Example 211, isoquinoline, 2-[[4-[1-(4-fluorophenyl)cyclopentyl]-2-(3-methyl-1-piperidinyl)-5-pyrimidinyl]carbonyl]-1,2,3,4-tetrahydro-], the EC50 rises from 130 nM to 272 nM (2.1-fold).

Same assay, conditions: hQ23 cells, thallium flux assay

Compared with `CN1CCC(N(C)c2ncc(C(=O)NCc3ccc(F)cc3F)c(C3(c4ccc(F)cc4)CCCC3)n2)CC1` [Example 271, 5-pyrimidinecarboxamide, N-[(2,4-difluorophenyl)methyl]-4-[1-(4-fluorophenyl)cyclopentyl]-2-[methyl(1-methyl-4-piperidinyl)amino]-], `CN(C)CCNc1ncc(C(=O)NCc2ccc(F)cc2F)c(C2(c3ccc(F)cc3)CCCC2)n1` [Example 272, 5-pyrimidinecarboxamide, N-[(2,4-difluorophenyl)methyl]-2-[[2-(dimethylamino)ethyl]amino]-4-[1-(4-fluorophenyl)cyclopentyl]-] is 1.8-fold higher in EC50: 532 nM for the first, 967 nM for the second. The first is the more potent here.

First: CC(NC(=O)c1cnc(NC2CCCC2)nc1C1(c2ccc(F)cc2)CCCC1)c1cccc2ccccc12 (centres unmarked) [Example 247, 5-pyrimidinecarboxamide, 2-(cyclopentylamino)-4-[1-(4-fluorophenyl)cyclopentyl]-N-[1-(1-naphthalenyl)ethyl]-]
Second: CCC(C)Nc1ncc(C(=O)NC(C)c2cccc3ccccc23)c(C2(c3ccc(F)cc3)CCCC2)n1 (centres unmarked) [Example 246, 5-pyrimidinecarboxamide, 4-[1-(4-fluorophenyl)cyclopentyl]-2-[(1-methylpropyl)amino]-N-[1-(1-naphthalenyl)ethyl]-]
The EC50 of the first is 1.9-fold lower: 92 nM for the first, 177 nM for the second. The first is the more potent here.

First: O=C(NCc1ccc(Cl)cc1Cl)c1cnc(N2CCCC2)nc1C1(c2ccc(F)cc2)CCCC1 [Example 261, 5-pyrimidinecarboxamide, N-[(2,4-dichlorophenyl)methyl]-4-[1-(4-fluorophenyl)cyclopentyl]-2-(1-pyrrolidinyl)-]
Second: CC1CCN(c2ncc(C(=O)NCc3cc(F)cc(C(F)(F)F)c3)c(C3(c4ccc(F)cc4)CCCC3)n2)CC1 [Example 278, 5-pyrimidinecarboxamide, 4-[1-(4-fluorophenyl)cyclopentyl]-N-[[3-fluoro-5-(trifluoromethyl)phenyl]methyl]-2-(4-methyl-1-piperidinyl)-]
The EC50 of the first is 2.8-fold higher: 28 nM for the first, 10 nM for the second.

`CN(C)CCNc1ncc(C(=O)NCc2ccc(Cl)c(Cl)c2)c(C2(c3ccc(F)cc3)CCCC2)n1` [Example 257, 5-pyrimidinecarboxamide, N-[(3,4-dichlorophenyl)methyl]-2-[[2-(dimethylamino)ethyl]amino]-4-[1-(4-fluorophenyl)cyclopentyl]-] gave an EC50 of 904 nM.
